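In this assay, cells in 96-well plates receive the compound at five concentrations for 48 hours. Endpoints are linearly interpolated between the surrounding concentrations. TGI marks complete inhibition of growth.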
Legend:
Test in all cases: DTP human tumour cell line panel, 48 h
[1] = test system: 786-0 renal
[2] = test system: A498 renal
[3] = test system: A549 NSCLC
[4] = test system: ACHN renal
[5] = test system: BT-549 breast
[6] = test system: CAKI-1 renal
[7] = test system: CCRF-CEM leukemia
[8] = test system: COLO 205 colon
[9] = test system: DU-145 prostate
[10] = test system: EKVX NSCLC
[11] = test system: HCC-2998 colon
[12] = test system: HCT-116 colon
[13] = test system: HCT-15 colon
[14] = test system: HOP-62 NSCLC
[15] = test system: HS 578T breast
[16] = test system: HT29 colon
[17] = test system: IGROV1 ovarian
[18] = test system: K-562 leukemia
[19] = test system: KM12 colon
[20] = test system: M14 melanoma
[21] = test system: MALME-3M melanoma
[22] = test system: MCF7 breast
[23] = test system: MDA-MB-231 breast
[24] = test system: MDA-MB-435
[25] = test system: MDA-N
[26] = test system: MOLT-4 leukemia
[27] = test system: NCI-H226 lung
[28] = test system: NCI-H23 lung
[29] = test system: NCI-H460 lung
[30] = test system: NCI-H522 lung
[31] = test system: NCI/ADR-RES ovarian
[32] = test system: OVCAR-3 ovarian
[33] = test system: OVCAR-4 ovarian
[34] = test system: OVCAR-5 ovarian
[35] = test system: OVCAR-8 ovarian
[36] = test system: PC-3 prostate
[37] = test system: RPMI-8226 leukemia
[38] = test system: RXF 393 renal
[39] = test system: SF-268 CNS
[40] = test system: SF-295 CNS
[41] = test system: SK-MEL-2 melanoma
[42] = test system: SK-MEL-28 melanoma
[43] = test system: SK-MEL-5 melanoma
[44] = test system: SK-OV-3 ovarian
[45] = test system: SN12C renal
[46] = test system: SNB-19 CNS
[47] = test system: SNB-75 CNS
[48] = test system: SR leukemia
[49] = test system: SW-620 colon
[50] = test system: T-47D breast
[51] = test system: TK-10 renal
[52] = test system: U251 CNS
[53] = test system: UACC-257 melanoma
[54] = test system: UACC-62 melanoma
[55] = test system: UO-31 renal
[56] = test system: HL-60(TB) leukemia
[57] = test system: HOP-92 NSCLC
[58] = test system: LOX IMVI melanoma

Measured: TGI

CCn1c(=O)ccc2ccc(N(CCO)CCO)nc21
not listed: [56] | [57] | [58]
> 100 µM: all other assays above

CN1CCN(C(=S)N(C(=O)c2ccco2)c2ccccc2)CC1
not listed: [2] | [6] | [10] | [12] | [14] | [31] | [36] | [44]
> 100 µM: all other assays above
